In patent publication US9701664B2, “Fused 1,4-dihydrodioxin derivatives as inhibitors of heat shock transcription factor 1” (Cancer Research Technology Limited, priority 2013, dated 2017):
Where two headings read alike, the source gives them in different places.

Legend:
[1] = system: U2OS cells; assay: Titre Blue cell viability assay, U2OS cells; format: cell-based
[2] = system: HSP72 in U2OS cells; assay: Cell-based ELISA (Cellisa) assay, U2OS cells: inhibition of 17-AAG-induced HSP72; conditions: U2OS cells (Examples 1-168)

Row | Molecule | IC50 [1] [nM] | IC50 [2] [nM] | IC50 ([1]; Homo sapiens, U2OS) [nM] | IC50 ([2]; Homo sapiens) [nM]
1 | N-(5-(2,3-dihydrobenzo[b][1,4]dioxine-6-carboxamido)-2-methylphenyl)-34(2-methoxyethyl)amino)-2-(2-(pyrrolidin-1-yl)ethoxy)quinoline-6-carboxamide [Example 150] | 86 | 98 | – | –
2 | Cc1ccc(NC(=O)c2ccc3c(c2)OCCO3)cc1NC(=O)c1ccc2nc(COCCN3CCCC3)ccc2c1 [Example 147, N-(5-(2,3-dihydrobenzo[b][1,4]dioxine-6-carboxamido)-2-methylphenyl)-2-((2-(pyrrolidin-1-yl)ethoxy)methyl)quinoline-6-carboxamide] | – | – | 54 | 83
3 | Cc1ccc(NC(=O)c2ccc3c(c2)OCCO3)cc1NC(=O)c1ccc2[nH]ncc2c1 [Example 97, N-(5-(2,3-dihydrobenzo[b][1,4]dioxine-6-carboxamido)-2-methylphenyl)-1H-indazole-5-carboxamide] | – | – | 32 | 59
4 | Cc1ccc(NC(=O)c2ccc3c(c2)OCCO3)cc1NC(=O)c1cnc2ccncc2c1 [Example 43, N-(5-(2,3-dihydrobenzo[b][1,4]dioxine-6-carboxamido)-2-methylphenyl)-1,6-naphthyridine-3-carboxamide] | – | – | 34 | 22
5 | COc1cc(C(=O)Nc2cc(NC(=O)c3ccc4c(c3)OCCO4)ccc2C)cc2sc(N)nc12 [Example 95, 2-amino-N-(5-(2,3-dihydrobenzo[b][1,4]dioxine-6-carboxamido)-2-methylphenyl)-4-methoxybenzo[d]thiazole-6-carboxamide] | – | – | 156 | 89
6 | Cc1ccc(NC(=O)c2ccc3c(c2)OCCO3)cc1NC(=O)c1ccc2c(c1)CCCC2 [Example 34, N-(4-methyl-3-(5,6,7,8-tetrahydronaphthalene-2-carboxamido)phenyl)-2,3-dihydrobenzo[b][1,4]dioxine-6-carboxamide] | – | – | 413 | 850
7 | Cc1ccc(NC(=O)c2ccc3c(c2)OCCO3)cc1NC(=O)c1ccc2cnccc2c1 [Example 46, N-(5-(2,3-dihydrobenzo[b][1,4]dioxine-6-carboxamido)-2-methylphenyl)isoquinoline-6-carboxamide] | – | – | 12 | 4
8 | Cc1ccc(NC(=O)c2ccc3c(c2)OCCO3)cc1NC(=O)c1ccc2oc(=O)ccc2c1 [Example 4, N-(4-methyl-3-(2-oxo-2H-chromene-6-carboxamido)phenyl)-2,3-dihydrobenzo[b][1,4]dioxine-6-carboxamide] | – | – | 18 | 10
9 | Cc1ccc(NC(=O)c2ccc3c(c2)OCCO3)cc1NC(=O)c1ccc2nc(COCC(C)C)ccc2c1 [Example 151, N-(5-(2,3-dihydrobenzo[b][1,4]dioxine-6-carboxamido)-2-methylphenyl)-2-(isobutoxymethyl)quinoline-6-carboxamide] | – | – | 26 | 100
10 | Cc1ccc(NC(=O)c2ccc3c(c2)OCCO3)cc1NC(=O)c1cnc2[nH]cnc2c1 [Example 92, N-(5-(2,3-dihydrobenzo[b][1,4]dioxine-6-carboxamido)-2-methylphenyl)-3H-imidazo[4,5-b]pyridine-6-carboxamide] | – | – | 3280 | 4410
11 | COCCOc1ccc2cc(C(=O)Nc3cc(NC(=O)c4ccc5c(c4)OCCO5)ccc3C)ccc2n1 [Example 3, N-(5-(2,3-dihydrobenzo[b][1,4]dioxine-6-carboxamido)-2-methylphenyl)-2-(2-methoxyethoxy)quinoline-6-carboxamide] | – | – | 29 | 7
12 | Cc1ccc(NC(=O)c2ccc3c(c2)OCCO3)cc1NC(=O)c1ccc2nc(CCO)ccc2c1 [Example 75, N-(5-(2,3-dihydrobenzo[b][1,4]dioxine-6-carboxamido)-2-methylphenyl)-2-(2-hydroxyethyl)quinoline-6-carboxamide] | – | – | 56 | 17
13 | Cc1ccc(NC(=O)c2ccc3c(c2)OCCO3)cc1NC(=O)c1ccc2nc(CCN3CCOCC3)ccc2c1 [Example 144, N-(5-(2,3-dihydrobenzo[b][1,4]dioxine-6-carboxamido)-2-methylphenyl)-2-(2-morpholinoethyl)quinoline-6-carboxamide] | – | – | 80 | 60
14 | Cc1ccc(NC(=O)c2ccc3c(c2)OCCO3)cc1NC(=O)c1ccc2nc(OCC(C)N3CCCC3)ccc2c1 (centres unmarked) [Example 68, N-(5-(2,3-dihydrobenzo[b][1,4]dioxine-6-carboxamido)-2-methylphenyl)-2-(2-(pyrrolidin-1-yl)propoxy)quinoline-6-carboxamide] | – | – | 12 | 41
15 | Cc1ccc(NC(=O)c2ccc3c(c2)OCCO3)cc1NC(=O)c1ccc2c(c1)CCO2 [Example 6, N-(3-(2,3-dihydrobenzofuran-5-carboxamido)-4-methylphenyl)-2,3-dihydrobenzo[b][1,4]dioxine-6-carboxamide] | – | – | 77 | 17
16 | Cc1ccc(NC(=O)c2ccc3c(c2)OCCO3)cc1NC(=O)c1ccc2nc(OCCN3CCC3)ccc2c1 [Example 60, 2-(2-(azetidin-1-yl)ethoxy)-N-(5-(2,3-dihydrobenzo[b][1,4]dioxine-6-carboxamido)-2-methylphenyl)quinoline-6-carboxamide] | – | – | 13 | 16

Row | Molecule | IC50 [1] [nM] | IC50 [2] [nM] | IC50 ([1]; Homo sapiens, U2OS) [nM] | IC50 ([2]; Homo sapiens) [nM]
17 | Cc1ccc(NC(=O)c2ccc3c(c2)OCCO3)cc1NC(=O)c1ccc2nc(OCCN(C)C)ccc2c1 [Example 62, N-(5-(2,3-dihydrobenzo[b][1,4]dioxine-6-carboxamido)-2-methylphenyl)-2-(2-(dimethylamino)ethoxy)quinoline-6-carboxamide] | – | – | 16 | 17
18 | Cc1ccc(NC(=O)c2ccc3c(c2)OCCO3)cc1NC(=O)c1ccc2c(c1)CCC(CN(C)C)N2 (centres unmarked) [Example 87, N-(5-(2,3-dihydrobenzo[b][1,4]dioxine-6-carboxamido)-2-methylphenyl)-2-((dimethylamino)methyl)-1,2,3,4-tetrahydroquinoline-6-carboxamide] | – | – | 260 | 608
19 | Cc1ccc(NC(=O)c2ccc3c(c2)OCCO3)cc1NC(=O)c1ccc2nc(N(C)CCN(C)C)ccc2c1 [Example 58, N-(5-(2,3-dihydrobenzo[b][1,4]dioxine-6-carboxamido)-2-methylphenyl)-2-((2-(dimethylamino)ethyl)(methyl)amino)quinoline-6-carboxamide] | – | – | 33 | 15
20 | Cc1ccc(NC(=O)c2ccc3c(c2)OCCO3)cc1NC(=O)c1ccnc(-n2cncn2)c1 [Example 96, N-(5-(2,3-dihydrobenzo[b][1,4]dioxine-6-carboxamido)-2-methylphenyl)-2-(1H-1,2,4-triazol-1-yl)isonicotinamide] | – | – | 1350 | 4440
21 | CNC(=O)c1ccc(C(=O)Nc2cc(NC(=O)c3ccc4c(c3)OCCO4)ccc2C)cn1 [Example 33, N5-(5-(2,3-dihydrobenzo[b][1,4]dioxine-6-carboxamido)-2-methylphenyl)-N2-methylpyridine-2,5-dicarboxamide] | – | – | 230 | 797
22 | Cc1ccc(NC(=O)c2ccc3c(c2)OCCO3)cc1NC(=O)c1ccc2c(c1)COC2 [Example 15, N-(3-(1,3-dihydroisobenzofuran-5-carboxamido)-4-methylphenyl)-2,3-dihydrobenzo[b][1,4]dioxine-6-carboxamide] | – | – | 75 | 76
23 | Cc1ccc(NC(=O)c2ccc3c(c2)OCCO3)cc1NC(=O)c1cc(F)c2ncccc2c1 [Example 136, N-(5-(2,3-dihydrobenzo[b][1,4]dioxine-6-carboxamido)-2-methylphenyl)-8-fluoroquinoline-6-carboxamide] | – | – | 4 | 14
24 | Cc1ccc(NC(=O)c2ccc3c(c2)OCCO3)cc1NC(=O)c1ccc2nc(OCCCN3CCOCC3)ccc2c1 [Example 55, N-(5-(2,3-dihydrobenzo[b][1,4]dioxine-6-carboxamido)-2-methylphenyl)-2-(3-morpholinopropoxy)quinoline-6-carboxamide] | – | – | 20 | 13
25 | Cc1ccc(NC(=O)c2ccc3c(c2)OCCO3)cc1NC(=O)c1ccc(OCc2cscn2)cc1 [Example 101, N-(4-methyl-3-(4-(thiazol-4-ylmethoxy)benzamido)phenyl)-2,3-dihydrobenzo[b][1,4]dioxine-6-carboxamide] | – | – | 59 | 122
26 | Cc1ccc(NC(=O)c2ccc3c(c2)OCCO3)cc1NC(=O)c1ccc(OCc2cscn2)nc1 [Example 13, N-(5-(2,3-dihydrobenzo[b][1,4]dioxine-6-carboxamido)-2-methylphenyl)-6-(thiazol-4-ylmethoxy)nicotinamide] | – | – | 217 | 262
27 | Cc1ccc(NC(=O)c2ccc3c(c2)OCCO3)cc1NC(=O)c1ccc2nc(N(C)CCN3CCCC3)ccc2c1 [Example 64, N-(5-(2,3-dihydrobenzo[b][1,4]dioxine-6-carboxamido)-2-methylphenyl)-2-(methyl(2-(pyrrolidin-1-yl)ethyl)amino)quinoline-6-carboxamide] | – | – | 32 | 25
28 | O=C(Nc1ccc(Cl)c(NC(=O)c2ccc3ncccc3c2)c1)c1ccc2c(c1)OCCO2 [Example 149, N-(2-chloro-5-(2,3-dihydrobenzo[b][1,4]dioxine-6-carboxamido)phenyl)quinoline-6-carboxamide] | – | – | 20 | 63
29 | O=C(Nc1ccc(Br)c(NC(=O)c2ccc3ncccc3c2)c1)c1ccc2c(c1)OCCO2 [Example 138, N-(2-bromo-5-(2,3-dihydrobenzo[b][1,4]dioxine-6-carboxamido)phenyl)quinoline-6-carboxamide] | – | – | 10 | 31
30 | C=CCc1cccc2ncc(C(=O)Nc3cc(NC(=O)c4ccc5c(c4)OCCO5)ccc3C)cc12 [Example 161, 5-allyl-N-(5-(2,3-dihydrobenzo[b][1,4]dioxine-6-carboxamido)-2-methylphenyl)quinoline-3-carboxamide] | – | – | 557 | 911
31 | N-(5-amino-2-((dimethylamino)methyl)phenyl)-2-methylquinoline-6-carboxamide [Example 165] | 1 | 5 | – | –
